# In patent publication US20120135866A1, “INCREASING PLANT VIGOR” (DOW AGROSCIENCES LLC, priority 2007, published 2012):
# “Also recorded” adds a separate entry of the source.
# Legend:
# Type in all cases: in vivo
# [1] = tested on: cotton aphid (CA) Aphis gossypii; assay: Test 1: cotton aphid counts on plants grown from soaked seeds
# Experimental: (§1) Seeds were soaked beginning on T=0 days in solutions of either
# (§2) Compound A, imidacloprid, or plain water containing 0.125% (v:v) Tween 20 (check treatment). Compounds were formulated as technical material in water containing 0.125% Tween 20. […] Solution concentrations were 50, 5, 0.5, 0.05 and 0.005 ppm. No evaporation was possible and a significant excess of solution was present to ensure abundant availability of either Compound A or imidacloprid from each solution. On average 20 ml of solution was used to soak groups of seed needed for the seed soaking phase of this test. Seeds were removed from these solutions on T=2 days and planted. Seeds exposed to each unique treatment were germinated as a groups in dedicated shallow plastic cups filled with white sand and containing plain water. Planting of these seeds occurred on T=2 days and the seeds were grown in these shallow cups until T=10 days. Initially 70 ml of water was added to each shallow cup at planting and additional water was added to the cups as needed to keep the sand moist. On T=10 days germinating seedlings were transplanted from the shallow germination cups to individual containers (plastic cups−6 reps per treatment) filled with white sand. Thirty ml of water was used to water the plants following transplanting. After the initial treatment water was added to cups as needed to maintain moisture for plant development. On T=14 days each plant was infested with cotton aphid (CA) Aphis gossypii by transferring a small piece of infested foliage to each test plant. The number of aphids transferred to each plant was uniform based on visual estimation. Plants were rated on T=17 days and T=18 days by counting the number of CA and taking the weight of the each plant. The plant part weighed was the aerial portion of the plant cut off at the surface of the sand. Data were analyzed using analysis of variance with an LSD means separation test (Minitab).
# Raw data were not homogeneous and so replicate aphid counts were transformed using a square root count+0.5 transformation.
# [2] = tested on: plant grown from soaked seeds; assay: Test 1: plant weight (aerial portion) after seed soak
# Experimental: as §1, §2
# Treatment number 4 experienced some negative effects associated with excess watering during the phase when these plants were being germinated. […] Only four replicate plants were able to be planted to individual growing cups. […] Prior to conducting an analysis of individual treatment effects (factorial analysis of variance, LSD means separation test P=0.05, Minitab) on weight Treatment 4 (Compound A 0.05 ppm) was removed from the analysis because it was judged to be an outlier based on poor growth as described above. The paired imidacloprid rate (0.05 ppm, No. 9) was also removed to keep the data balanced.
# [3] = tested on: Corn (Zea mays 'M2T783') seeds; assay: Test 2: fresh plant weight of corn after seed soak
# Experimental: Technical samples of Compound A and imidacloprid were dissolved in water containing 0.125% Tween 20 (V:V). […] The treatment concentrations for Compound A and imidacloprid were 50, 12.5, 3.125, 0.78 and 0.19 ppm. Solutions were prepared in excess and 40 ml was added to 50 ml centrifuge tubes. Corn (Zea mays ‘M2T783’) seeds were inspected for uniform size and undamaged condition and were placed into each centrifuge tube containing specific compound by rate solutions. A treatment of only 0.125% aqueous Tween 20 was used to soak corn seeds and served as the untreated check. Tubes containing seeds and compound solutions were held at room temperature and after […] the seeds were removed from each solution, rinsed and planted into sand in 7.5 cm^2 pots. Tissue paper was placed into the bottom of each pot to keep sand from leaching from the pot. A total of 8 reps of each compound by rate combination were planted for both corn. Eight replicate pots of compound by rate combination were arranged in a completely randomized design on greenhouse carts. This arrangement of treated seeds in pots was placed into the greenhouse and watered over the top as needed. Each cart was equipped with a plastic rack that served to raise the pots up off the cart surface and away from any standing water. The carts were placed in the center of the greenhouse and were rotated 180 degrees daily. After 13 days the carts were moved to the laboratory and the plants were cut off at the soil surface and weighed. Fresh plant weight data were analyzed for homogeneity of variance using Levene's test and further evaluated using one way analysis of variance of individual treatment combinations (compound by rate) and pooled by compound across rates. Means were separated using Tukey's mean separation test with a family-wise error rate of 0.05. All analyses were conducted using Minitab
# Corn data were homogeneous based on Levene's test for homgeneity of variance (p=0.116 and p=0.69 respectively). AOV of corn data did indicate a difference (F=3.22, P=0.045, df=2) for pooled compound effects but not for individual treatment effects.
smiles,measurement,setting,value
"O=[N+]([O-])NC1=NCCN1Cc1ccc(Cl)nc1 [Imidacloprid, imidacloprid]",Effect on number of aphids vs check,"[1]; Test 1, seed soak, compound main effect",significantly more aphids in the check treatment; also recorded: reduced the number of aphids on plants
same,Aphids (#/plant) Rep 1,[1]; seed soak 0.005 ppm,45 #/plant
same,Aphids (#/plant) Rep 2,[1]; seed soak 0.005 ppm,125 #/plant
same,Aphids (#/plant) Rep 3,[1]; seed soak 0.005 ppm,55 #/plant
same,Aphids (#/plant) Rep 4,[1]; seed soak 0.005 ppm,75 #/plant
same,Aphids (#/plant) Rep 5,[1]; seed soak 0.005 ppm,80 #/plant
same,Aphids (#/plant) Rep 6,[1]; seed soak 0.005 ppm,35 #/plant
same,Aphids (#/plant) Rep 1,[1]; seed soak 0.05 ppm,95 #/plant
same,Aphids (#/plant) Rep 2,[1]; seed soak 0.05 ppm,60 #/plant
same,Aphids (#/plant) Rep 3,[1]; seed soak 0.05 ppm,65 #/plant
same,Aphids (#/plant) Rep 4,[1]; seed soak 0.05 ppm,95 #/plant
same,Aphids (#/plant) Rep 5,[1]; seed soak 0.05 ppm,75 #/plant
same,Aphids (#/plant) Rep 6,[1]; seed soak 0.05 ppm,50 #/plant
same,Aphids (#/plant) Rep 1,[1]; seed soak 0.5 ppm,25 #/plant
same,Aphids (#/plant) Rep 2,[1]; seed soak 0.5 ppm,44 #/plant
same,Aphids (#/plant) Rep 3,[1]; seed soak 0.5 ppm,43 #/plant
same,Aphids (#/plant) Rep 4,[1]; seed soak 0.5 ppm,70 #/plant
same,Aphids (#/plant) Rep 5,[1]; seed soak 0.5 ppm,80 #/plant
same,Aphids (#/plant) Rep 6,[1]; seed soak 0.5 ppm,30 #/plant
same,Aphids (#/plant) Rep 1,[1]; seed soak 5 ppm,33 #/plant
same,Aphids (#/plant) Rep 2,[1]; seed soak 5 ppm,37 #/plant
same,Aphids (#/plant) Rep 3,[1]; seed soak 5 ppm,17 #/plant
same,Aphids (#/plant) Rep 4,[1]; seed soak 5 ppm,18 #/plant
same,Aphids (#/plant) Rep 5,[1]; seed soak 5 ppm,30 #/plant
same,Aphids (#/plant) Rep 6,[1]; seed soak 5 ppm,34 #/plant
same,Aphids (#/plant) Rep 1,[1]; seed soak 50 ppm,0 #/plant
same,Aphids (#/plant) Rep 2,[1]; seed soak 50 ppm,0 #/plant
same,Aphids (#/plant) Rep 3,[1]; seed soak 50 ppm,4 #/plant
same,Aphids (#/plant) Rep 4,[1]; seed soak 50 ppm,7 #/plant
same,Aphids (#/plant) Rep 5,[1]; seed soak 50 ppm,4 #/plant
same,Aphids (#/plant) Rep 6,[1]; seed soak 50 ppm,1 #/plant
same,Effect on plant weight vs check,"[2]; Test 1, seed soak",increased plant weights compared to the check plants
same,Plant Weight (g) Rep 1,[2]; seed soak 0.005 ppm,2.07 g
same,Plant Weight (g) Rep 2,[2]; seed soak 0.005 ppm,1.59 g
same,Plant Weight (g) Rep 3,[2]; seed soak 0.005 ppm,2.01 g
same,Plant Weight (g) Rep 4,[2]; seed soak 0.005 ppm,1.67 g
same,Plant Weight (g) Rep 5,[2]; seed soak 0.005 ppm,1.86 g
same,Plant Weight (g) Rep 6,[2]; seed soak 0.005 ppm,1.68 g
same,Plant Weight (g) Rep 1,[2]; seed soak 0.05 ppm,1.38 g
same,Plant Weight (g) Rep 2,[2]; seed soak 0.05 ppm,1.37 g
same,Plant Weight (g) Rep 3,[2]; seed soak 0.05 ppm,1.65 g
same,Plant Weight (g) Rep 4,[2]; seed soak 0.05 ppm,1.57 g
same,Plant Weight (g) Rep 5,[2]; seed soak 0.05 ppm,1.72 g
same,Plant Weight (g) Rep 6,[2]; seed soak 0.05 ppm,1.62 g
same,Plant Weight (g) Rep 1,[2]; seed soak 0.5 ppm,1.61 g
same,Plant Weight (g) Rep 2,[2]; seed soak 0.5 ppm,1.82 g
same,Plant Weight (g) Rep 3,[2]; seed soak 0.5 ppm,1.73 g
same,Plant Weight (g) Rep 4,[2]; seed soak 0.5 ppm,2.05 g
same,Plant Weight (g) Rep 5,[2]; seed soak 0.5 ppm,1.66 g
same,Plant Weight (g) Rep 6,[2]; seed soak 0.5 ppm,1.95 g
same,Plant Weight (g) Rep 1,[2]; seed soak 5 ppm,1.64 g
same,Plant Weight (g) Rep 2,[2]; seed soak 5 ppm,1.44 g
same,Plant Weight (g) Rep 3,[2]; seed soak 5 ppm,1.91 g
same,Plant Weight (g) Rep 4,[2]; seed soak 5 ppm,1.44 g
same,Plant Weight (g) Rep 5,[2]; seed soak 5 ppm,1.75 g
same,Plant Weight (g) Rep 6,[2]; seed soak 5 ppm,2.05 g
same,Plant Weight (g) Rep 1,[2]; seed soak 50 ppm,1.47 g
same,Plant Weight (g) Rep 2,[2]; seed soak 50 ppm,2.05 g
same,Plant Weight (g) Rep 3,[2]; seed soak 50 ppm,1.73 g
same,Plant Weight (g) Rep 4,[2]; seed soak 50 ppm,1.84 g
same,Plant Weight (g) Rep 5,[2]; seed soak 50 ppm,2.02 g
same,Plant Weight (g) Rep 6,[2]; seed soak 50 ppm,1.86 g
same,Plant Weight % increase,"[3]; corn seedling weight vs untreated Tween 20 water check, pooled across rates",24.8%
same,Plant Weight (g) Mean,"[3]; corn, seed soak, pooled across rates 50-0.19 ppm, fresh weight after 13 days",2.841 g
same,Tukey's pair-wise comparison of corn plant weight with untreated Tween 20 water check,"[3]; pooled compound effects, family-wise error rate 0.05",not significantly different
